Columns and labels:
[1] = tested on: hsp70; test: Level of hsp70; assay type: cell-based
[2] = tested on: PSA; test: PSA quantification in spent media (Tandem-E PSA kit); assay type: cell-based, human; settings: LNCaP cells, 1 nM Mib, six days, normalized to cell number
Protocol: (§1) A human prostate cancer cell line, LNCaP (American Type Culture Collection (ATCC), Manassas, Va.), was cultured in RPMI 1640 medium (Mediatech, Herndon, Va.) supplemented with 5% fetal bovine serum (FBS) at 37° C. and 5% CO2 until reaching approximately 50-70% confluence. The media were changed to serum-free RPMI 1640 24 hrs prior to experiments being performed to deplete undesired steroids. […] Equivalent amounts of solvent were added to control cells.
(§2) For cell proliferation and PSA expression assays, LNCaP cells were seeded at 2×10^4 cells per well in 24 well plates. […] Six days after treatment, 400 μl of spent media were collected for total PSA protein measurements by the Tandem-E PSA kit (Hybritech Inc. San Diego, Calif.). An MTS assay was performed (Promega, Madison, Wis.) for measuring cell viability. Four wells per treatment were used for the above assays and it was repeated twice. PSA levels in spent media were normalized to cell number.

[3] = tested on: ARA70; test: Level of androgen receptor specific co-activator ARA70; assay type: cell-based
[4] = tested on: androgen-regulated genes (NKX 3.1, ODC, fkbp 51, Drg-1, PSA); test: Northern blot of androgen-regulated genes in LNCaP cells; assay type: cell-based, human
Protocol: A denaturing RNA gel was run and transferred onto a nylon membrane (BioRad) according to the GeneScreen protocol (New England Nuclear). Fifteen μg of total RNA was loaded in each lane. cDNAs for PSA, ornithine decarboxylase (ODC), NKX 3.1, fkbp 51, Drg-1 and glyceraldehyde-3-phosphate dehydogenase (GAPDH) were labeled with [P^32]dCTP by random priming and used as probes. The hybridizations were performed according to the recommended protocol using ExpressHyb Hybridization Solution (Clontech, Palo Alto, Calif.). The films were autoradiographed at −70° C. overnight.

[5] = tested on: c-fos; test: Level of c-fos in LNCaP cells; assay type: cell-based, human
[6] = tested on: LNCaP cells; test: Cell proliferation (MTS) assay, androgen-stimulated growth; assay type: cell-based, human; settings: six days; for androgen-stimulated cell growth: with 1 nM mibolerone (Mib)
Protocol: as §1, §2

[7] = tested on: hsp90; test: Level of hsp90; assay type: cell-based
[8] = biological target: T1, androgen receptor (Homo sapiens, UniProt P10275, T878A); assay type: cell-based; settings: LNCaP cells, 3.2 nM Mib
T1 construct: LNCaP cells express the androgen receptor; endogenous in cells; host or cells: LNCaP
T1 sequence (P10275 whole entry T878A): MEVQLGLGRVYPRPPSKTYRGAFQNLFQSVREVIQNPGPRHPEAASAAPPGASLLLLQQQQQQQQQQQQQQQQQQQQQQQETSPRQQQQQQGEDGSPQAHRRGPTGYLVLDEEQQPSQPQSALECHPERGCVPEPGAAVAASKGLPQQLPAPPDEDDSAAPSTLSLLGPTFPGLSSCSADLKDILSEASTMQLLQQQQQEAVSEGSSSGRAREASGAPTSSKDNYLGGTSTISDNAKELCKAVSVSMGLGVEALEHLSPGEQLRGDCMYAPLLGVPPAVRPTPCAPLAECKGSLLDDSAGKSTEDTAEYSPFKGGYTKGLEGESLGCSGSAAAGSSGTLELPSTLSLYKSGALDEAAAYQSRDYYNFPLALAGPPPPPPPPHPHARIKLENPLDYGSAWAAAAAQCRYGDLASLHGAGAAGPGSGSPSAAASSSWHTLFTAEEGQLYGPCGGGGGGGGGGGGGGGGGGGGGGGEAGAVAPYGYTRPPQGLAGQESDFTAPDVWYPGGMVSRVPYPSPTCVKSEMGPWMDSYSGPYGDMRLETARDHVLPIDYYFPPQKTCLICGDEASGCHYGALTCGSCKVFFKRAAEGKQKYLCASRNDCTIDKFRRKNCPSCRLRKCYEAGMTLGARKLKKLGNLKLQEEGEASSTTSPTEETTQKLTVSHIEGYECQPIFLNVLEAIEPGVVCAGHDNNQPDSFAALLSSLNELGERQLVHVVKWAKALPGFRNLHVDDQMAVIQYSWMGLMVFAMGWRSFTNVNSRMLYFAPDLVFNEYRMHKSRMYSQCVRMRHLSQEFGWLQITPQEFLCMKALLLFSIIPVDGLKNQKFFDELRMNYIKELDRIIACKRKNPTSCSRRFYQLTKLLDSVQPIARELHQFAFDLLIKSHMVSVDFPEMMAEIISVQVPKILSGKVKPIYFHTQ
Protocol: LNCaP or PC-3 cells were plated in 60 mm dishes. Cells were transiently transfected as described (Zhang et al., 1999, Endocrin, 140:1665-71) with either 3 copies of an hK2 ARE in a pGL3 promoter plasmid, CMV-β-gal, a human androgen receptor expression vector or a c-jun expression vector as indicated. The androgen receptor and c-jun constructs were driven by an SV40 promoter. LNCaP cells were transfected using liposome containing dimethyldioctadecyl-ammonium bromide (DDAB) (Sigma) and L-α-lecithin (Sigma) (4:10 w/w) and PC-3 cells were transfected using lipofectamine (Gibco BRL, Grand Island, N.Y.). […] Whole cell extracts were prepared according to Ren et al., (2000, Oncogene, 19:1924-32) and a luciferase assay was performed according to manufacturer's instructions (Promega). The CMV-β-galactosidase (β-gal) expression vector and the parental vector (pGL3) were included as controls in the above transfections. β-gal activity or total protein using the Bradford assay (BioRad, Hercules, Calif.) were assayed for normalization purposes. Luciferase activities were normalized to β-gal activities and presented as relative light units/mU β-gal. Each transfection was done three times and results were analyzed by the Student's t-test. A p<0.05 was accepted as the level of significance.

Compound: CCC=CCC=CCC=CCC=CCC=CC/C=C\CCC(=O)O [DHA, cis-4,7, 10, 13, 16, 19-docosahexaenoic acid]
- levels of hsp70 [1]: no inhibitory effects were observed
- androgen-stimulated PSA secretion [2]: decrease in androgen-stimulated PSA secretion
- levels of ARA70 [3]: no inhibitory effects were observed
- androgen-induced mRNA of NKX 3.1, ODC, fkbp 51, Drg-1 and PSA ([4]; 1 nM Mib, DHA at 150 μM or higher): greatly inhibited the androgen-induced response
- levels of c-fos [5]: unaltered
- androgen-stimulated cell growth [6]: dose-dependent statistically significant decrease in cell growth
- cell growth without androgen stimulation ([6]; without Mib): little response
- levels of hsp90 [7]: no inhibitory effects were observed

Compound: CCC=CCC=CCC=CCC=CC/C=C\CCCC(=O)O [EPA, cis-5,8, 11, 14, 17-eicosapentaenoic acid]
- levels of hsp70 [1]: no inhibitory effects were observed
- androgen-stimulated PSA secretion [2]: required higher EPA concentrations for significant inhibition
- mRNA and protein levels of PSA and hK2 ([4]; summary statement): reduce both the mRNA and protein levels
- androgen-stimulated cell growth [6]: decreased androgen-stimulated cell growth
- levels of hsp90 [7]: no inhibitory effects were observed

Compound: C[C@@H]1CC2=CC(=O)CC[C@@H]2[C@H]2CC[C@@]3(C)[C@@H](CC[C@]3(C)O)[C@@H]21 [Mib, mibolerone]
- ARE luciferase activity, androgen alone [8]: strong androgenic induction of luciferase activity
